Test results as given in the Bradley open melting point set (2014).
Several values for one entry are separate records, joined by “and”; a condition that tells them apart may be missing. Equal entries are not always repeated. Structures can show the parent of a compound that is named as a salt.

Row | SMILES | melting point
1 | COC(=O)c1ccc(OC)c(F)c1 [methyl 3-fluoro-4-methoxybenzoate] | 71 °C
2 | COC(=O)c1sccc1O [methyl 3-hydroxythiophene-2-carboxylate] | 46 °C
3 | COC(=O)n1ccc(C)n1 [methyl 3-methyl-1H-pyrazole-1-carboxylate] | 33 °C
4 | COC(=O)c1cccc([N+](=O)[O-])c1 [methyl 3-nitrobenzoate] | 79 °C
5 | COC(=O)c1sc(Br)c(Br)c1O [methyl 4,5-dibromo-3-hydroxythiophene-2-carboxylate] | 127 °C
6 | COCC(CCC(=O)OC)N1CC=CC1 (stereo unspecified) [methyl 4-(2,5-dihydro-1H-pyrrol-1-yl)-5-methoxypentanoate] | 145 °C
7 | COC(=O)c1ccc(C(C)=O)cc1 [methyl 4-acetylbenzoate] | 86 °C
8 | COC(=O)c1ccc(N)cc1 [methyl 4-aminobenzoate] [listing 1 of 2 here] | 112 °C
9 | COC(=O)c1ccc(N)cc1 [methyl 4-aminobenzoate] [listing 2 of 2 here] | 114 °C
10 | COC(=O)c1ccc(O)cc1 [methyl 4-hydroxybenzoate] | 131 °C and 127 °C
11 | COC(=O)c1ccc(OC)cc1 [methyl 4-methoxybenzoate] | 50 °C
12 | COC(=O)c1cc2c(OC)cccc2[nH]1 [methyl 4-methoxyindole-2-carboxylate] | 141 °C
13 | COC(=O)c1cncc(Br)c1 [methyl 5-bromonicotinate] | 97 °C
14 | COC(=O)c1cc(Cl)ccc1[N+](=O)[O-] [methyl 5-chloro-2-nitrobenzoate] | 49 °C
15 | COC(=O)CCC(C)C1CCC2C3C(O)C(O)C4CCCCC4(C)C3CCC12C (stereo unspecified) [methyl 6,7-dihydroxycholan-24-oate] | 105 °C
16 | COC(=O)c1ccc(N)nc1 [methyl 6-aminonicotinate] | 155 °C
17 | COC(=O)c1ccc2cc(Br)ccc2c1 [methyl 6-bromo-2-naphthoate] | 122 °C
18 | COC(=O)N/C=C/c1ccccc1[N+](=O)[O-] [methyl [(E)-2-(2-nitrophenyl)ethenyl]carbamate] | 147 °C
19 | COC(=O)c1ccccc1 [methyl benzoate] | -12 °C
20 | COC(=O)NN [methyl carbazate] | 72 °C
21 | COC(=O)CC#N [methyl cyanoacetate] | -23 °C
22 | COC=O [methyl formate] | -100 °C
23 | COC(=O)c1ccncc1 [methyl isonicotinate] | 8 °C
24 | COC(=O)CC(N)=O [methyl malonamate] | 39 °C
25 | CCCSC [methyl n-propyl sulfide] | -113 °C
26 | COC(=O)c1ccc(N)cc1 [methyl p-aminobenzoate] | 114 °C

Row | SMILES | melting point
27 | COC(=O)c1ccc(O)cc1 [methyl p-hydroxybenzoate] | 131 °C
28 | CN(C)c1ccc(/N=N/c2ccccc2C(=O)O)cc1 [methyl red] | 181 °C
29 | COC(=O)c1ccc(O)cc1 [methyl-p-hydroxybenzoate] | 131 °C
30 | COC(=O)c1cc(OC)c(OC)c(OC)c1 [methyl_3,4,5-trimethoxybenzoate] | 84 °C
31 | COC(=O)c1ccc(OC)c(OC)c1 [methyl_3,4-dimethoxybenzoate] | 60 °C
32 | COC(=O)c1cccc(Br)c1 [methyl_3-bromobenzoate] | 33 °C
33 | COC(=O)c1cccc(O)c1 [methyl_3-hydroxybenzoate] | 74 °C
34 | COC(=O)c1ccc(Br)cc1 [methyl_4-bromobenzoate] | 81 °C
35 | COC(=O)c1ccc(O)cc1 [methyl_4-hydroxybenzoate] | 128 °C
36 | COC(=O)c1ccc(OC)cc1 [methyl_4-methoxybenzoate] | 50 °C
37 | COC(=O)c1ccc([N+](=O)[O-])cc1 [methyl_4-nitrobenzoate] | 96 °C
38 | C=CC(=O)OC [methyl_acrylate] | -75 °C
39 | COC(=O)c1ccccc1 [methyl_benzoate] | -12 °C
40 | COC(=O)c1ccc(CC#N)cc1 [methyl_p-cyanomethyl_benzoate] | 64 °C
41 | O=C(S)CCCC(=O)S [methylenebis(thioacetic acid)] | 128 °C
42 | COC(=O)c1ccc(O)cc1 [methylparaben] | 131 °C
43 | O=C4\C=C3/[C@]([C@H]2CC[C@]1([C@@H](CC[C@@]1(O)C)[C@@H]2CC3)C)(C)CC4 [methyltestosterone] | 163 °C
44 | C[Si](Cl)(Cl)Cl [methyltrichlorosilane] | -78 °C
45 | CCC1(CC)C(=O)NCC(C)C1=O (stereo unspecified) [methyprylon] | 75.5 °C
46 | Cc1sc2ccccc2c1CC1=NCCN1 [metizoline] | 156 °C
47 | CCN(CC)CCNC(=O)c1cc(Cl)c(N)cc1OC [metoclopramide] | 147 °C
48 | COc1ccc(NC(=O)N(C)C)cc1Cl [metoxuron] | 127 °C
49 | CO[C@@]12[C@H](COC(N)=O)C3=C(C(=O)C(C)=C(N)C3=O)N1C[C@@H]1N[C@@H]12 [mitomycin c] | 360 °C
50 | NC(=O)CS(=O)C(c1ccccc1)c1ccccc1 (stereo unspecified) [modafinil] | 164 °C
51 | Cc1ccc(C2(O)CCN(CCCC(=O)c3ccc(F)cc3)CC2)cc1 [moperone] | 118 °C
52 | Cc1c(CN2CCOC(c3ccccc3)C2C)c(=O)n(-c2ccccc2)n1C (stereo unspecified) [morazone] | 149 °C

Row | SMILES | melting point
53 | O[C@H]1[C@H](O)[C@@H](O)[C@H](O)[C@@H](O)[C@H]1O [myo-inositol] | 226 °C
54 | CN(C)c1ccccc1 [n,n-dimethylaniline] | 3 °C
55 | O=C1CCC(=O)N1Br [n-bromosuccinimide] | 180 °C
56 | CCNc1ccccc1 [n-ethylaniline] | -63 °C
57 | CNC=O [n-methylformamide] | -40 °C
58 | CCn1cc(C(=O)O)c(=O)c2ccc(C)nc21 [nalidixic acid] [listing 1 of 2 here] | 229 °C
59 | CCn1cc(C(=O)O)c(=O)c2ccc(C)nc21 [nalidixic acid] [listing 2 of 2 here] | 230 °C
60 | c1ccc2cc3cc4ccccc4cc3cc2c1 [naphthacene] | 357 °C
61 | NC(=O)c1cccc2ccccc12 [naphthalene-1-carboxamide] | 208 °C
62 | COc1ccc2cc(C(C)CO)ccc2c1 (stereo unspecified) [naproxol] | 87 °C
63 | O=C(O)c1cccnc1 [nicotinic acid] [listing 1 of 2 here] | 237 °C
64 | O=C(O)c1cccnc1 [nicotinic acid] [listing 2 of 2 here] | 237 °C (2×) and 238 °C
65 | C1=CC2CCC1C2 [norbornene] | 46 °C
66 | CC(=O)Oc1ccccc1C(N)=O [o-acetoxybenzamide] | 138 °C
67 | CC(=O)Oc1ccccc1C(=O)O [o-acetylsalicylic acid] | 138 °C
68 | Nc1ccccc1CO [o-amino_benzyl_alcohol] | 83 °C
69 | NC(=O)c1ccccc1Cc1ccccc1 [o-benzylbenzamide] | 165 °C
70 | Nc1ccccc1Br [o-bromoaniline] | 30 °C
71 | O=[N+]([O-])c1ccccc1Br [o-bromonitrobenzene] | 43 °C
72 | O=Cc1ccccc1Cl [o-chlorobenzaldehyde] | 11 °C
73 | Cc1ccccc1Cl [o-chlorotoluene] | -35 °C
74 | N#CCc1ccccc1C(=O)O [o-cyanomethyl_benzoic_acid] | 115 °C
75 | Brc1ccccc1Br [o-dibromobenzene] | 7 °C
76 | Clc1ccccc1Cl [o-dichlorobenzene] | -17 °C
